Laboratory results: patent US20010014364A1, “Use of stabilized bromine to improve quality and appearance of leafy vegetables or the like” (priority 1997, published 2001)

How the values were obtained:
[1] = tested on: aerobic plate count bacteria; assay: Aerobic plate count (APC) bacteria on leaf lettuce after direct application of halogen solution and during storage; assay type: cell-based; conditions: for Log reduction of microbial populations from leaf lettuce surface / Percent reduction of microbial populations from leaf lettuce surface: APC, compared to unwashed control; for Aerobic plate count (APC) bacterial populations: storage at 4-6° C.
Protocol: (§1) Solutions of either stabilized sodium hyprobromite or industrial unstabilized sodium hypochlorite were added to “tap” water in order to achieve a 50, 100, or 200 ppm total halogen residual (as chlorine). The “tap” water contained calcium (90 ppm as CaCO3), “M” alkalinity (110 ppm as CaCO3) and magnesium (50 ppm as CaCO3) in deionized water. The “tap” water was buffered at pH 7.5 using borax and monobasic potassium phosphate. Solutions of stabilized sodium hypobromite or unstabilized sodium hypochlorite were applied directly to leaf lettuce by dipping the lettuce in the solutions for 3-minutes. Lettuce was immediately removed, drained for 1-minute, rinsed for 30-seconds with potable water, drained for 1-minute, and then spun dry with a bench-top lettuce spinner. Lettuce was analyzed for microbial populations remaining on the surface and 50-gram portions were stored at 4-6° C. for shelf-life evaluation. Shelf-life was visually judged for changes in color (browning) and odor.

[2] = tested on: yeast and mold; assay: Yeast and mold (YM) count on leaf lettuce after direct application of halogen solution and during storage; assay type: cell-based; conditions: for Yeast and mold (YM) count populations: storage at 4-6° C.; for Log reduction of microbial populations from leaf lettuce surface / Percent reduction of microbial populations from leaf lettuce surface: YM, compared to unwashed control
Protocol: as §1

Structure (SMILES): OCl [Bleach, sodium hypochlorite]
- Log reduction of microbial populations from leaf lettuce surface ([1]; 50 ppm av. Cl2): 2.1 Log
- Percent reduction of microbial populations from leaf lettuce surface ([1]; 50 ppm av. Cl2): 99.200%
- Log reduction of microbial populations from leaf lettuce surface ([1]; 100 ppm av. Cl2): 2.1 Log
- Percent reduction of microbial populations from leaf lettuce surface ([1]; 100 ppm av. Cl2): 99.120%
- Log reduction of microbial populations from leaf lettuce surface ([1]; 200 ppm av. Cl2): 2.1 Log
- Percent reduction of microbial populations from leaf lettuce surface ([1]; 200 ppm av. Cl2): 99.200%
- Aerobic plate count (APC) bacterial populations ([1]; Day 0, 50 ppm av. Cl2): 5.3 Log10 CFU/g lettuce
- Aerobic plate count (APC) bacterial populations ([1]; Day 0, 100 ppm av. Cl2): 5.3 Log10 CFU/g lettuce
- Aerobic plate count (APC) bacterial populations ([1]; Day 0, 200 ppm av. Cl2): 5.3 Log10 CFU/g lettuce
- Aerobic plate count (APC) bacterial populations ([1]; Day 1, 50 ppm av. Cl2): 5.4 Log10 CFU/g lettuce
- Aerobic plate count (APC) bacterial populations ([1]; Day 1, 100 ppm av. Cl2): 5.3 Log10 CFU/g lettuce
- Aerobic plate count (APC) bacterial populations ([1]; Day 1, 200 ppm av. Cl2): 5.5 Log10 CFU/g lettuce
- Aerobic plate count (APC) bacterial populations ([1]; Day 2, 50 ppm av. Cl2): 6.4 Log10 CFU/g lettuce
- Aerobic plate count (APC) bacterial populations ([1]; Day 2, 100 ppm av. Cl2): 6.6 Log10 CFU/g lettuce
- Aerobic plate count (APC) bacterial populations ([1]; Day 2, 200 ppm av. Cl2): 7.0 Log10 CFU/g lettuce
- Aerobic plate count (APC) bacterial populations ([1]; Day 4, 50 ppm av. Cl2): 6.5 Log10 CFU/g lettuce
- Aerobic plate count (APC) bacterial populations ([1]; Day 4, 100 ppm av. Cl2): 6.6 Log10 CFU/g lettuce
- Aerobic plate count (APC) bacterial populations ([1]; Day 4, 200 ppm av. Cl2): 7.5 Log10 CFU/g lettuce
- Aerobic plate count (APC) bacterial populations ([1]; Day 5, 50 ppm av. Cl2): 6.0 Log10 CFU/g lettuce
- Aerobic plate count (APC) bacterial populations ([1]; Day 5, 100 ppm av. Cl2): 6.4 Log10 CFU/g lettuce
- Aerobic plate count (APC) bacterial populations ([1]; Day 5, 200 ppm av. Cl2): 6.6 Log10 CFU/g lettuce
- Aerobic plate count (APC) bacterial populations ([1]; Day 6, 50 ppm av. Cl2): 6.6 Log10 CFU/g lettuce
- Aerobic plate count (APC) bacterial populations ([1]; Day 6, 100 ppm av. Cl2): 6.6 Log10 CFU/g lettuce
- Aerobic plate count (APC) bacterial populations ([1]; Day 6, 200 ppm av. Cl2): 8.1 Log10 CFU/g lettuce
- Aerobic plate count (APC) bacterial populations ([1]; Day 7, 50 ppm av. Cl2): 7.2 Log10 CFU/g lettuce
- Aerobic plate count (APC) bacterial populations ([1]; Day 7, 100 ppm av. Cl2): 7.2 Log10 CFU/g lettuce
- Aerobic plate count (APC) bacterial populations ([1]; Day 7, 200 ppm av. Cl2): 7.7 Log10 CFU/g lettuce
- Aerobic plate count (APC) bacterial populations ([1]; Day 8, 50 ppm av. Cl2): 7.7 Log10 CFU/g lettuce
- Aerobic plate count (APC) bacterial populations ([1]; Day 8, 100 ppm av. Cl2): 8.1 Log10 CFU/g lettuce
- Aerobic plate count (APC) bacterial populations ([1]; Day 8, 200 ppm av. Cl2): 7.6 Log10 CFU/g lettuce
- Aerobic plate count (APC) bacterial populations ([1]; Day 9, 50 ppm av. Cl2): 7.6 Log10 CFU/g lettuce
- Aerobic plate count (APC) bacterial populations ([1]; Day 9, 100 ppm av. Cl2): 7.4 Log10 CFU/g lettuce
- Aerobic plate count (APC) bacterial populations ([1]; Day 9, 200 ppm av. Cl2): 7.5 Log10 CFU/g lettuce
- Aerobic plate count (APC) bacterial populations ([1]; Day 10, 50 ppm av. Cl2): 7.6 Log10 CFU/g lettuce
- Aerobic plate count (APC) bacterial populations ([1]; Day 10, 100 ppm av. Cl2): 7.0 Log10 CFU/g lettuce
- Aerobic plate count (APC) bacterial populations ([1]; Day 10, 200 ppm av. Cl2): 8.6 Log10 CFU/g lettuce
- Aerobic plate count (APC) bacterial populations ([1]; Day 11, 50 ppm av. Cl2): 8.0 Log10 CFU/g lettuce
- Aerobic plate count (APC) bacterial populations ([1]; Day 11, 100 ppm av. Cl2): 7.9 Log10 CFU/g lettuce
- Aerobic plate count (APC) bacterial populations ([1]; Day 11, 200 ppm av. Cl2): 8.5 Log10 CFU/g lettuce
- Aerobic plate count (APC) bacterial populations ([1]; Day 12, 50 ppm av. Cl2): 8.3 Log10 CFU/g lettuce
- Aerobic plate count (APC) bacterial populations ([1]; Day 12, 100 ppm av. Cl2): 8.0 Log10 CFU/g lettuce
- Aerobic plate count (APC) bacterial populations ([1]; Day 12, 200 ppm av. Cl2): 8.4 Log10 CFU/g lettuce
- Yeast and mold (YM) count populations ([2]; Day 0, 50 ppm av. Cl2): 2.8 Log10 CFU/g lettuce
- Yeast and mold (YM) count populations ([2]; Day 0, 100 ppm av. Cl2): 2.9 Log10 CFU/g lettuce
- Yeast and mold (YM) count populations ([2]; Day 0, 200 ppm av. Cl2): 2.7 Log10 CFU/g lettuce
- Yeast and mold (YM) count populations ([2]; Day 1, 50 ppm av. Cl2): 2.7 Log10 CFU/g lettuce
- Yeast and mold (YM) count populations ([2]; Day 1, 100 ppm av. Cl2): 2.9 Log10 CFU/g lettuce
- Yeast and mold (YM) count populations ([2]; Day 1, 200 ppm av. Cl2): 2.7 Log10 CFU/g lettuce
- Yeast and mold (YM) count populations ([2]; Day 2, 50 ppm av. Cl2): 2.7 Log10 CFU/g lettuce
- Yeast and mold (YM) count populations ([2]; Day 2, 100 ppm av. Cl2): 2.8 Log10 CFU/g lettuce
- Yeast and mold (YM) count populations ([2]; Day 2, 200 ppm av. Cl2): 2.8 Log10 CFU/g lettuce
- Yeast and mold (YM) count populations ([2]; Day 4, 50 ppm av. Cl2): 4.5 Log10 CFU/g lettuce
- Yeast and mold (YM) count populations ([2]; Day 4, 100 ppm av. Cl2): 4.1 Log10 CFU/g lettuce
- Yeast and mold (YM) count populations ([2]; Day 4, 200 ppm av. Cl2): 4.4 Log10 CFU/g lettuce
- Yeast and mold (YM) count populations ([2]; Day 5, 50 ppm av. Cl2): 3.3 Log10 CFU/g lettuce
- Yeast and mold (YM) count populations ([2]; Day 5, 100 ppm av. Cl2): 3.5 Log10 CFU/g lettuce
- Yeast and mold (YM) count populations ([2]; Day 5, 200 ppm av. Cl2): 3.0 Log10 CFU/g lettuce
- Yeast and mold (YM) count populations ([2]; Day 6, 50 ppm av. Cl2): 3.8 Log10 CFU/g lettuce
- Yeast and mold (YM) count populations ([2]; Day 6, 100 ppm av. Cl2): 3.9 Log10 CFU/g lettuce
- Yeast and mold (YM) count populations ([2]; Day 6, 200 ppm av. Cl2): 4.5 Log10 CFU/g lettuce
- Yeast and mold (YM) count populations ([2]; Day 7, 50 ppm av. Cl2): 3.7 Log10 CFU/g lettuce
- Yeast and mold (YM) count populations ([2]; Day 7, 100 ppm av. Cl2): 4.5 Log10 CFU/g lettuce
- Yeast and mold (YM) count populations ([2]; Day 7, 200 ppm av. Cl2): 4.0 Log10 CFU/g lettuce
- Yeast and mold (YM) count populations ([2]; Day 8, 50 ppm av. Cl2): 4.4 Log10 CFU/g lettuce
- Yeast and mold (YM) count populations ([2]; Day 8, 100 ppm av. Cl2): 4.9 Log10 CFU/g lettuce
- Yeast and mold (YM) count populations ([2]; Day 8, 200 ppm av. Cl2): 4.4 Log10 CFU/g lettuce
- Yeast and mold (YM) count populations ([2]; Day 9, 50 ppm av. Cl2): 4.0 Log10 CFU/g lettuce
- Yeast and mold (YM) count populations ([2]; Day 9, 100 ppm av. Cl2): 4.6 Log10 CFU/g lettuce
- Yeast and mold (YM) count populations ([2]; Day 9, 200 ppm av. Cl2): 4.2 Log10 CFU/g lettuce
- Yeast and mold (YM) count populations ([2]; Day 10, 50 ppm av. Cl2): 4.1 Log10 CFU/g lettuce
- Yeast and mold (YM) count populations ([2]; Day 10, 100 ppm av. Cl2): 3.8 Log10 CFU/g lettuce
- Yeast and mold (YM) count populations ([2]; Day 10, 200 ppm av. Cl2): 4.5 Log10 CFU/g lettuce
- Yeast and mold (YM) count populations ([2]; Day 11, 50 ppm av. Cl2): 4.9 Log10 CFU/g lettuce
- Yeast and mold (YM) count populations ([2]; Day 11, 100 ppm av. Cl2): 4.5 Log10 CFU/g lettuce
- Yeast and mold (YM) count populations ([2]; Day 11, 200 ppm av. Cl2): 4.6 Log10 CFU/g lettuce
- Yeast and mold (YM) count populations ([2]; Day 12, 50 ppm av. Cl2): 5.5 Log10 CFU/g lettuce
- Yeast and mold (YM) count populations ([2]; Day 12, 100 ppm av. Cl2): 4.8 Log10 CFU/g lettuce
- Yeast and mold (YM) count populations ([2]; Day 12, 200 ppm av. Cl2): 4.8 Log10 CFU/g lettuce
- Log reduction of microbial populations from leaf lettuce surface ([2]; 50 ppm av. Cl2): 2.4 Log
- Percent reduction of microbial populations from leaf lettuce surface ([2]; 50 ppm av. Cl2): 99.647%
- Log reduction of microbial populations from leaf lettuce surface ([2]; 100 ppm av. Cl2): 2.3 Log
- Percent reduction of microbial populations from leaf lettuce surface ([2]; 100 ppm av. Cl2): 99.494%
- Log reduction of microbial populations from leaf lettuce surface ([2]; 200 ppm av. Cl2): 2.5 Log
- Percent reduction of microbial populations from leaf lettuce surface ([2]; 200 ppm av. Cl2): 97.729%
- Yeasts and molds reduced ([2]; lettuce washed with the halogen solution): about 2 log
